# In PubChem BioAssay AID1963420 (Molecular Pharmacology Branch, DTP, NCI, 2024):
# pIC50: −log10 of the molar value.
# Test system: 494315-158-R-J1-PDC complex spheroid growth, percent test/control
# Experiment: Anticancer human tumor 494315-158-R-J1-PDC patient-derived soft tissue sarcoma cell line growth inhibition [Asc]
# Conditions: for pIC50: curve of first compound; for viability, T/C: stronger effect = lower value
# Method in brief: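 Concentration series start at each agent's clinical Cmax, or at 10 microM when none is established, and drop in half-log steps; agents are applied alone or together to complex spheroids built with HUVEC and hMSC.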
# [1] = second compound 0.1 µM, first compound 0.0316 µM
# [2] = second compound 0.1 µM, first compound 0.1 µM
# [3] = second compound 0.1 µM, first compound 0.316 µM
# [4] = second compound 0.1 µM, first compound 1 µM
# [5] = second compound 0.1 µM, first compound 3.16 µM
# [6] = second compound 0.1 µM, first compound 10 µM
# [7] = second compound 0.316 µM, first compound 0.0316 µM
# [8] = second compound 0.316 µM, first compound 0.1 µM
# [9] = second compound 0.316 µM, first compound 0.316 µM
# [10] = second compound 0.316 µM, first compound 1 µM
# [11] = second compound 0.316 µM, first compound 3.16 µM
# [12] = second compound 0.316 µM, first compound 10 µM
# [13] = second compound 1 µM, first compound 0.0316 µM
# [14] = second compound 1 µM, first compound 0.1 µM
# [15] = second compound 1 µM, first compound 0.316 µM
# [16] = second compound 1 µM, first compound 1 µM
# [17] = second compound 1 µM, first compound 3.16 µM
# [18] = second compound 1 µM, first compound 10 µM
# [19] = second compound 3.16 µM, first compound 0.0316 µM
# [20] = second compound 3.16 µM, first compound 0.1 µM
# [21] = second compound 3.16 µM, first compound 0.316 µM
# [22] = second compound 3.16 µM, first compound 1 µM
# [23] = second compound 3.16 µM, first compound 3.16 µM
# [24] = second compound 3.16 µM, first compound 10 µM
# [25] = second compound 10 µM, first compound 0.0316 µM
# [26] = second compound 10 µM, first compound 0.1 µM
# [27] = second compound 10 µM, first compound 0.316 µM
# [28] = second compound 10 µM, first compound 1 µM
# [29] = second compound 10 µM, first compound 3.16 µM
# [30] = second compound 10 µM, first compound 10 µM
# 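Also: compound exposure lasted seven days after spheroids formed for three days.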
compound,measurement,setting,value
C#Cc1c(F)ccc2cc(O)cc(-c3ncc4c(N5CC6CCC(C5)N6)nc(OCC56CCCN5CC(F)C6)nc4c3F)c12 (stereo not given) + Cc1c(S(C)(=O)=O)c(-c2cc(F)cc(N3CCN(c4ccc(NS(=O)(=O)c5ccc(NC(CCN6CCC(C(=O)OCCCP(=O)(O)O)CC6)CSc6ccccc6)c(S(=O)(=O)C(F)(F)F)c5)cc4)CC3)c2)c(-c2ccc(Cl)cc2)n1C(C)C,pIC50,second compound 0.1 µM,< 5.00
same,pIC50,second compound 0.316 µM,< 5.00
same,pIC50,second compound 1 µM,< 5.00
same,pIC50,second compound 3.16 µM,5.39
same,pIC50,second compound 10 µM,< 5.00
same,"viability, T/C",[1],82.8%
same,"viability, T/C",[2],89.9%
same,"viability, T/C",[3],77.2%
same,"viability, T/C",[4],88.6%
same,"viability, T/C",[5],80.4%
same,"viability, T/C",[6],59.8%
same,"viability, T/C",[7],84.9%
same,"viability, T/C",[8],74.8%
same,"viability, T/C",[9],74.8%
same,"viability, T/C",[10],72.1%
same,"viability, T/C",[11],71.9%
same,"viability, T/C",[12],50.7%
same,"viability, T/C",[13],61.6%
same,"viability, T/C",[14],78.1%
same,"viability, T/C",[15],72.8%
same,"viability, T/C",[16],69.2%
same,"viability, T/C",[17],71.1%
same,"viability, T/C",[18],51.4%
same,"viability, T/C",[19],51.9%
same,"viability, T/C",[20],57.5%
same,"viability, T/C",[21],65.7%
same,"viability, T/C",[22],58.9%
same,"viability, T/C",[23],51.5%
same,"viability, T/C",[24],37.6%
same,"viability, T/C",[25],74.8%
same,"viability, T/C",[26],78.8%
same,"viability, T/C",[27],88.2%
same,"viability, T/C",[28],81.2%
same,"viability, T/C",[29],81.3%
same,"viability, T/C",[30],55.5%
C=C(F)C(=O)N1CCN(c2nc(OCC3CCCN3C)nc3c2CCN(c2cccc4cccc(Cl)c24)C3)CC1CC#N (stereo not given) + Cc1c(S(C)(=O)=O)c(-c2cc(F)cc(N3CCN(c4ccc(NS(=O)(=O)c5ccc(NC(CCN6CCC(C(=O)OCCCP(=O)(O)O)CC6)CSc6ccccc6)c(S(=O)(=O)C(F)(F)F)c5)cc4)CC3)c2)c(-c2ccc(Cl)cc2)n1C(C)C,pIC50,second compound 0.1 µM,5.74
same,pIC50,second compound 0.316 µM,5.87
same,pIC50,second compound 1 µM,5.86
same,pIC50,second compound 3.16 µM,6.44
same,pIC50,second compound 10 µM,5.83
same,"viability, T/C",[1],77.7%
same,"viability, T/C",[2],79.6%
same,"viability, T/C",[3],71.8%
same,"viability, T/C",[4],73.7%
same,"viability, T/C",[5],27.8%
same,"viability, T/C",[6],0.16%
same,"viability, T/C",[7],73.5%
same,"viability, T/C",[8],72.7%
same,"viability, T/C",[9],75.1%
same,"viability, T/C",[10],57%
same,"viability, T/C",[11],25.6%
same,"viability, T/C",[12],0.14%
same,"viability, T/C",[13],64.3%
same,"viability, T/C",[14],67%
same,"viability, T/C",[15],65.5%
same,"viability, T/C",[16],61.1%
same,"viability, T/C",[17],20.6%
same,"viability, T/C",[18],0.12%
same,"viability, T/C",[19],55.9%
same,"viability, T/C",[20],53.4%
same,"viability, T/C",[21],47.8%
same,"viability, T/C",[22],41.1%
same,"viability, T/C",[23],11.1%
same,"viability, T/C",[24],0.15%
same,"viability, T/C",[25],75.8%
same,"viability, T/C",[26],78.5%
same,"viability, T/C",[27],73.5%
same,"viability, T/C",[28],65.3%
same,"viability, T/C",[29],20%
same,"viability, T/C",[30],0.24%
CCN1C(C(=O)NC23CCC(C(=O)O)(CC2)CC3)C(c2cccc(Cl)c2F)C2(C(=O)Nc3cc(Cl)ccc32)C12CCCCC2 (stereo not given) + Cc1c(S(C)(=O)=O)c(-c2cc(F)cc(N3CCN(c4ccc(NS(=O)(=O)c5ccc(NC(CCN6CCC(C(=O)OCCCP(=O)(O)O)CC6)CSc6ccccc6)c(S(=O)(=O)C(F)(F)F)c5)cc4)CC3)c2)c(-c2ccc(Cl)cc2)n1C(C)C,pIC50,second compound 0.1 µM,< 5.52
same,pIC50,second compound 0.316 µM,< 5.52
same,pIC50,second compound 1 µM,5.99
same,pIC50,second compound 3.16 µM,7.14
same,pIC50,second compound 10 µM,< 5.52
same,"viability, T/C","second compound 0.1 µM, first compound 0.00949 µM",80.3%
same,"viability, T/C","second compound 0.1 µM, first compound 0.03 µM",86.6%
same,"viability, T/C","second compound 0.1 µM, first compound 0.0949 µM",84.4%
same,"viability, T/C","second compound 0.1 µM, first compound 0.3 µM",77.4%
same,"viability, T/C","second compound 0.1 µM, first compound 0.949 µM",77.4%
same,"viability, T/C","second compound 0.1 µM, first compound 3 µM",67%
same,"viability, T/C","second compound 0.316 µM, first compound 0.00949 µM",79.1%
same,"viability, T/C","second compound 0.316 µM, first compound 0.03 µM",74.9%
same,"viability, T/C","second compound 0.316 µM, first compound 0.0949 µM",64.4%
same,"viability, T/C","second compound 0.316 µM, first compound 0.3 µM",60.7%
same,"viability, T/C","second compound 0.316 µM, first compound 0.949 µM",63.3%
same,"viability, T/C","second compound 0.316 µM, first compound 3 µM",54.3%
same,"viability, T/C","second compound 1 µM, first compound 0.00949 µM",66%
same,"viability, T/C","second compound 1 µM, first compound 0.03 µM",66.3%
same,"viability, T/C","second compound 1 µM, first compound 0.0949 µM",68.8%
same,"viability, T/C","second compound 1 µM, first compound 0.3 µM",62.8%
same,"viability, T/C","second compound 1 µM, first compound 0.949 µM",50.8%
same,"viability, T/C","second compound 1 µM, first compound 3 µM",39.7%
same,"viability, T/C","second compound 3.16 µM, first compound 0.00949 µM",53.3%
same,"viability, T/C","second compound 3.16 µM, first compound 0.03 µM",45.1%
same,"viability, T/C","second compound 3.16 µM, first compound 0.0949 µM",53.8%
same,"viability, T/C","second compound 3.16 µM, first compound 0.3 µM",46.5%
same,"viability, T/C","second compound 3.16 µM, first compound 0.949 µM",45.8%
same,"viability, T/C","second compound 3.16 µM, first compound 3 µM",35.6%
same,"viability, T/C","second compound 10 µM, first compound 0.00949 µM",83%
same,"viability, T/C","second compound 10 µM, first compound 0.03 µM",73.3%
same,"viability, T/C","second compound 10 µM, first compound 0.0949 µM",68.4%
same,"viability, T/C","second compound 10 µM, first compound 0.3 µM",68.5%
same,"viability, T/C","second compound 10 µM, first compound 0.949 µM",52.8%
same,"viability, T/C","second compound 10 µM, first compound 3 µM",52.8%
CNC(C)C(=O)NC1CN(S(=O)(=O)c2cccc(S(=O)(=O)N3CCC4CCC(C(=O)NC(c5ccccc5)c5ccccc5)N4C(=O)C(NC(=O)C(C)NC)C3)c2)CCC2CCC(C(=O)NC(c3ccccc3)c3ccccc3)N2C1=O (stereo not given) + Cc1c(S(C)(=O)=O)c(-c2cc(F)cc(N3CCN(c4ccc(NS(=O)(=O)c5ccc(NC(CCN6CCC(C(=O)OCCCP(=O)(O)O)CC6)CSc6ccccc6)c(S(=O)(=O)C(F)(F)F)c5)cc4)CC3)c2)c(-c2ccc(Cl)cc2)n1C(C)C,pIC50,second compound 0.1 µM,7.73
same,pIC50,second compound 0.316 µM,> 8.50
same,pIC50,second compound 1 µM,8.02
same,pIC50,second compound 3.16 µM,> 8.50
same,pIC50,second compound 10 µM,7.65
same,"viability, T/C","second compound 0.1 µM, first compound 0.00316 µM",66.2%
same,"viability, T/C","second compound 0.1 µM, first compound 0.01 µM",57.6%
same,"viability, T/C",[1],42.9%
same,"viability, T/C",[2],36.8%
same,"viability, T/C",[3],29.5%
same,"viability, T/C",[4],26.9%
same,"viability, T/C","second compound 0.316 µM, first compound 0.00316 µM",46.4%
same,"viability, T/C","second compound 0.316 µM, first compound 0.01 µM",47.5%
same,"viability, T/C",[7],39.1%
same,"viability, T/C",[8],39.3%
same,"viability, T/C",[9],26%
same,"viability, T/C",[10],30%
same,"viability, T/C","second compound 1 µM, first compound 0.00316 µM",68.2%
same,"viability, T/C","second compound 1 µM, first compound 0.01 µM",43.2%
same,"viability, T/C",[13],42.8%
same,"viability, T/C",[14],34.7%
same,"viability, T/C",[15],26.4%
same,"viability, T/C",[16],23.9%
same,"viability, T/C","second compound 3.16 µM, first compound 0.00316 µM",49%
same,"viability, T/C","second compound 3.16 µM, first compound 0.01 µM",39.7%
same,"viability, T/C",[19],32.6%
same,"viability, T/C",[20],21.8%
same,"viability, T/C",[21],36.7%
same,"viability, T/C",[22],19.8%
same,"viability, T/C","second compound 10 µM, first compound 0.00316 µM",60.3%
same,"viability, T/C","second compound 10 µM, first compound 0.01 µM",60.5%
same,"viability, T/C",[25],44.5%
same,"viability, T/C",[26],36.4%
same,"viability, T/C",[27],29.3%
same,"viability, T/C",[28],29.4%
